Data taken from BindingDB's records for doi:10.1021/jm980254j (Georgetown University Medical Center, 1998).
pIC50: −log10 of the molar value.

Biological target: phosphoinositide-specific phospholipase C (Bos taurus)
Assay: In vitro inhibitory activity against bovine Phosphoinositide specific phospholipase C (PI-PLC)

pIC50: 5.10
Structure (SMILES): CCCCCCCCCCCCCCCC(=O)OC[C@H](COP(=O)(O)OC1C(O)C(O)C(O)C(F)C1O)OC(=O)CCCCCCCCCCCCCCC (stereo partly drawn) [Hexadecanoic acid (R)-2-[(3-fluoro-2,4,5,6-tetrahydroxy-cyclohexyloxy)-hydroxy-phosphoryloxy]-1-hexadecanoyloxymethyl-ethyl ester]
